According to paper PMC8911046, “Identification of Kukoamine A, Zeaxanthin, and Clexane as New Furin Inhibitors” (International Journal of Molecular Sciences, 2022):
“And” between values parts separate entries of the source, which are not always exact repeats. Identical values can stand only once. Residues, ends and D or L forms follow the SMILES beside them. *: point of attachment. Decanoyl = CCCCCCCCCC(=O)*; CH2Cl = ClC*

Columns and labels:
[1] = target: T1, furin from the U-251 MG secretome (Homo sapiens, UniProt P09958); assay: Furin inhibition assay in coadjuvants with CMK; assay type: biochemical; conditions: CMK alone, read-out: IC50 for CMK alone, physiological furin
T1 construct: physiological furin secreted from U-251 MG cells; endogenous in cells; host or cells: U-251 MG human glioblastoma cells; conditioned medium (secretome) concentrated 10x
T1 sequence (P09958 108-715 limits assumed): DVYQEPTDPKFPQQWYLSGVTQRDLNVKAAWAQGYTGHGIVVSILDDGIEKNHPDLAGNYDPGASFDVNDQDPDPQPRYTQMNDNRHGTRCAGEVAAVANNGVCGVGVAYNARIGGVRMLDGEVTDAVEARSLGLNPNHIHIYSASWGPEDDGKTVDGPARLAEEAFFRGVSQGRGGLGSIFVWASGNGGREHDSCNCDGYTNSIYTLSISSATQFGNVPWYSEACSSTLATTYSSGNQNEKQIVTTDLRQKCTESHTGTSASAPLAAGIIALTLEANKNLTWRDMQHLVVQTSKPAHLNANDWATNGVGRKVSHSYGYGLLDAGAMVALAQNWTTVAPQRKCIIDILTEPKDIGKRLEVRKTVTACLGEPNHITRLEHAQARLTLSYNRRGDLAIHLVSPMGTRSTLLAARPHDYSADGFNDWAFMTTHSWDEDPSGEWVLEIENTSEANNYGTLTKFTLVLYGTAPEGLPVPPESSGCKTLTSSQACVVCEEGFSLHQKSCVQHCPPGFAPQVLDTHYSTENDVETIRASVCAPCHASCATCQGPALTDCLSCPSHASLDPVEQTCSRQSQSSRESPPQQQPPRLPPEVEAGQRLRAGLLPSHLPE
Experimental: (§1) The IC50 was calculated only for those compounds that inhibited recombinant and physiological furin. For each compound concentration, furin activity’s maximum velocity (mRFU/min) was recorded. Then, by using GraphPad software (v. 8), the correlation between the decimal logarithm (compound concentration) and furin activity’s maximum velocity was calculated by nonlinear regression (curve fit) for XY analyses. From this statistical method, the IC50 was calculated with a 95% confidence interval (CI).
Since furin inhibition by CMK had been tested only in physiological conditions, adjuvant inhibition assays were performed with furin from the U-251 MG secretome. Inhibition was assessed by using different concentrations of CMK (Cat.No. B5437; APExBIO) and the IC50 concentrations of selected virtual screening compounds or Clexane. In a 96-well black plate, various CMK (0–50 µM) concentrations were incubated with the IC50 concentrations of the rest of the compounds and with 10× U-251 MG secretome as described above. After 10 min incubation at room temperature, 50 µM furin specific fluorogenic substrate was added and the plate was read in a Multiskan Go plate reader at 380 and 460 nm for emission and excitation wavelengths, respectively, at 37 °C for 30 min.

293T HEK cell line = assay: Cell viability by 7-AAD flow cytometry; assay type: cell-based; conditions: for Alive (%) / Dead (%): 293T HEK; for percentage of live cells: half of the IC50 for physiological furin, no compound 94.25% ± 3.18%
Experimental: New furin inhibitors identified by virtual screening were tested in cell viability assays. The 293T HEK cell line (human embryonic kidney cell line purchased from American Type Culture Collection) was used as healthy cell model. They were cultured in DMEM containing 4,5 g/L glucose, supplemented with 10% fetal bovine serum, 1% GlutaMax, and 0,1% gentamicin. They were maintained in Corning® T-75 flasks (catalog #430641; ThermoFisher Scientific, Waltham, MA, USA) at 37 °C and 5% carbon dioxide. At 100% cellular confluence, cells were subcultured in 12-well plates (flat bottom, sterile, NUNC brand, Biolab, Madrid, Spain) at 100,000 cells/mL for 24 h. Then, different concentrations (double, half, and full IC50 concentrations for physiological furin) of furin inhibitors were added to cells for 24 h, and cells were collected afterward. The experiment was run in duplicates. Then, the cell pellet was resuspended in running buffer (autoMACS ® Running Buffer–MACS Separation Buffer; order no.:130-091-221; Miltenyi Biotec, Madrid, Spain) and 7-AAD (Cat: 51-68981E; BD Biosciences, Madrid, Spain). Finally, this solution was evaluated in a flow cytometer (BD Accuri™ C6 Plus Flow Cytometer; BD Biosciences, Madrid, Spain) to calculate mortality rates. A blank solution with cell pellet resuspended in running buffer was used to discard cell autofluorescence. The results were analyzed in FlowJo software (v. 10).

[2] = set-up: method as in PMID 27241194, PMID 28254666; conditions: rats or mice, doses between 5 and 20 mg/kg; cited from earlier work
human recombinant furin = target: T2, human recombinant furin (Homo sapiens, UniProt P09958); assay: Fluorogenic furin inhibition assay, recombinant furin; assay type: biochemical; conditions: 3.6 nM human recombinant furin, 50 µM fluorogenic substrate, pH 9
T2 construct: purchased R&D Systems 1503-SE-010
T2 sequence (P09958 108-794): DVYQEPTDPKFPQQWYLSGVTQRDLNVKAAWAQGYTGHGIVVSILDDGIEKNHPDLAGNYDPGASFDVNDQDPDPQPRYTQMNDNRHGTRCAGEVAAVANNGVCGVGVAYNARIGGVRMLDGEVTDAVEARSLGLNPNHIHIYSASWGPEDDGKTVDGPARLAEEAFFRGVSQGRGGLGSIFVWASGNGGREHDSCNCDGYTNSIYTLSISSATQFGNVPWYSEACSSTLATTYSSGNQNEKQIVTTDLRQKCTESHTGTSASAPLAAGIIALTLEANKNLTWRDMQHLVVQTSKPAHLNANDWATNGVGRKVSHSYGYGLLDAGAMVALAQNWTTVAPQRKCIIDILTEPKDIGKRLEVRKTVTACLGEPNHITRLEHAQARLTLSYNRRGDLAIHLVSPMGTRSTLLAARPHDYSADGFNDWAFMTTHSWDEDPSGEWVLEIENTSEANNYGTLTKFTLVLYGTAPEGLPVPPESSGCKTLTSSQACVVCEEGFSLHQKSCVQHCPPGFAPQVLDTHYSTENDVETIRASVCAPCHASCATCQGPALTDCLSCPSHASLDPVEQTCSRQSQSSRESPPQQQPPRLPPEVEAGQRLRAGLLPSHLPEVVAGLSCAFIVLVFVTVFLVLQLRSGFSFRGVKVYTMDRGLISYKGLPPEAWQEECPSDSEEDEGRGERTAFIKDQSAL
Experimental: Clexane (LMWH, enoxaparin sodium, Clexane, Sanofi Aventis S.A., Barcelona, Spain) and each candidate compound selected by virtual screening were assayed as inhibitors of human recombinant furin (1503-SE-010; Lot#INK2320031; R&D Systems) and physiological furin secreted from U-251 MG cells. For both types of furin, the fluorogenic specific substrate (mentioned above) was used. […] Compounds were reconstituted in their appropriate solvents (distilled water, ethanol, PBS, etc.), according to the supplier’s instructions. In a 96-well black plate, U-251 MG secretome concentrated 10× or 3.6 nM human recombinant furin were incubated with different compound concentrations for 10 min at room temperature, and then, 50 µM furin specific fluorogenic substrate was added to every well, except one blank. Fluorescence was recorded in the Multiskan Go plate reader at 380 and 460 nm for emission and excitation wavelengths, respectively, at 37 °C for 30 min.
as §1, with “From this statistical method, the IC50 was calculated with a 95% confidence interval (CI).” left out

[3] = 2xIC50, single replicates of duplicate
[4] = IC50, single replicates of duplicate
[5] = IC50/2, single replicates of duplicate
[6] = 293T cells, double IC50 concentration, 24 h

| IC50 [1] | Structure (SMILES) | Alive (%) (293T HEK cell line; [3]) | Dead (%) (293T HEK cell line; [3]) | Alive (%) (293T HEK cell line; [4]) | Dead (%) (293T HEK cell line; [4]) | Alive (%) (293T HEK cell line; [5]) | Dead (%) (293T HEK cell line; [5]) | effect on cell viability (293T HEK cell line; [6]) | effect on cell viability (293T HEK cell line; 293T cells, full IC50 concentration, 24 h) | percentage of live cells (293T HEK cell line; 293T cells, 24 h) | adverse effects [2] | IC50 (human recombinant furin) | reduction of cell viability (293T HEK cell line; 293T cells, IC50 concentration, 24 h) |
| --- | --- | --- | --- | --- | --- | --- | --- | --- | --- | --- | --- | --- | --- |
| 4.2 µM | CCCCCCCCCC(=O)N[C@@H](CCCNC(=N)N)C(=O)N[C@H](C(=O)N[C@@H](CCCCN)C(=O)N[C@@H](CCCNC(=N)N)C(=O)CCl)C(C)C [CMK, Decanoyl-Arg-Val-Lys-Arg-chloromethylketone] (Decanoyl-RVKR-CH2Cl) | – | – | – | – | – | – | – | – | – | – | – | – |
| – | O=C(CCc1ccc(O)c(O)c1)NCCCNCCCCNCCCNC(=O)CCc1ccc(O)c(O)c1 [Kukoamine A] | 6.25% and 5.88% | 94.1% and 93.8% | 8.33% and 0% | 91.7% and 100% | 89.8% and 85.3% | 10.2% and 14.7% | significantly reduced | significantly reduced | 87.55% ± 1.48% | no significant reported adverse effects | 1070 µM | – |
| – | CC1=C(/C=C/C(C)=C/C=C/C(C)=C/C=C/C=C(C)/C=C/C=C(C)/C=C/C2=C(C)C[C@@H](O)CC2(C)C)C(C)(C)C[C@H](O)C1 [Zeaxanthin] | 1.10% and 15.7% | 84.3% and 98.9% | 32.8% and 33.9% | 67.2% and 66.1% | 78.2% and 84.0% | 21.8% and 16.0% | nearly total death | – | 81.1% ± 4.1% | – | 90.5 µM | 61% |
